According to ChEMBL document CHEMBL1141777, “Norlanostane triterpenoidal saponins from the marine sponge melophlussarassinorum” (2005):
Calls of active or inactive are those of the source. No cut-off for these calls is given here.

How the values were obtained:
Bacillus subtilis [1] = assay: Antimicrobial activity against Bacillus subtilis DSM 2109; format: functional, organism-based
Escherichia coli = assay: Antimicrobial activity against Escherichia coli DSM 10290; format: functional, organism-based
Saccharomyces cerevisiae [2] = assay: Antimicrobial activity against Saccharomyces cerevisiae at 10 ug after 24 hrs by agar diffusion assay; format: functional; details: read-out: IZ
Saccharomyces cerevisiae [3] = assay: Antimicrobial activity against Saccharomyces cerevisiae; format: functional, organism-based
Bacillus subtilis [4] = assay: Antimicrobial activity against Bacillus subtilis DSM 2109 at 10 ug after 24 hrs by agar diffusion assay; format: functional; details: DSM 2109, 24 h, read-out: IZ

## CC(=O)N[C@H]1[C@H](O[C@@H]2CO[C@@H](O[C@H]3CC[C@]4(C)C5=C(CC[C@H]4C3(C)C)[C@@H]3CC[C@H]([C@H](C)CC(=O)C=C(C)C)[C@@]3(C)CC5)[C@H](O[C@@H]3O[C@H](CO[C@@H]4O[C@H](CO)[C@@H](O)[C@H](O)[C@H]4O[C@@H]4O[C@H](CO)[C@@H](O)[C@H](O)[C@H]4O)[C@@H](O)[C@H](O)[C@H]3NC(C)=O)[C@H]2O)O[C@H](CO)[C@H](O)[C@@H]1O [SARASINOSIDE A1]
Bacillus subtilis [1]
  Activity: inactive
Escherichia coli
  Activity: inactive
Saccharomyces cerevisiae [2]
  zone of inhibition at 10 µg/disc: 10 mm
Saccharomyces cerevisiae [3]
  Activity: Active

## CC(=O)N[C@H]1[C@H](O[C@@H]2CO[C@@H](O[C@H]3CC[C@]4(C)C5=C(CC[C@H]4C3(C)C)[C@@H]3CC[C@H]([C@H](C)CC(=O)CC(C)(C)O)[C@@]3(C)CC5)[C@H](O[C@@H]3O[C@H](CO[C@@H]4O[C@H](CO)[C@@H](O)[C@H](O)[C@H]4O[C@@H]4O[C@H](CO)[C@@H](O)[C@H](O)[C@H]4O)[C@@H](O)[C@H](O)[C@H]3NC(C)=O)[C@H]2O)O[C@H](CO)[C@H](O)[C@@H]1O [SARASINOSIDE J]
Bacillus subtilis [4]
  zone of inhibition at 10 µg/disc: 9 mm
Saccharomyces cerevisiae [2]
  zone of inhibition at 10 µg/disc: 13 mm
Saccharomyces cerevisiae [3]
  Activity: Active
